The values below come from patent US8129532B2, “Amino(oligo)thiophene dyes, preparation thereof, and optical methods of use” (The University of Connecticut, priority 2007, dated 2012).

Where “and” joins values, the source holds several entries; their conditions need not be identical. Equal values may be shown once. A value given as a limit tells only on which side of the number the result lay.

One data set relates to membrane potential. The following applies: cited from earlier work.
The nature of data set [1]: One-photon fluorescence relative signal change per 100 mV. The following applies: excitation / long-pass emission (nm) given. An excerpt:
The left-most data columns of Table 1 are the absorption and emission maxima for one photon fluorescence in soybean multi-lamellar lipid vesicles used to mimic the membrane environment. The column indicating relative signal change for one-photon fluorescence also lists the excitation light source used and the lower bounds of the long-pass emission detected.

A further data set deals with dye-stained cells. Briefly: Confocal fluorescence intensity and bleaching of dye-stained cells. As to conditions: compared with PY-1261. It is filed as cell-based.
A short description of data set [2]: One-photon absorption and emission spectra in multilamellar lipid vesicles, water and ethanol. It is filed as physicochemical. The following applies: for 1PF Abs. Max / 1PF Em. Max: one photon, soybean multi-lamellar lipid vesicles. An excerpt:
[…] The column indicating relative signal change for one-photon fluorescence also lists the excitation light source used and the lower bounds of the long-pass emission detected.
Absorption and emission spectra were obtained for a series of dyes with different acceptors: pyridinium (PY-1261), quinolinium (PY-212), and acridinium (PY-2240).

For the next data set, the system named is neuroblastoma cells. In words: SHG and 2PF imaging of stained neuroblastoma cells, 1064 nm fiber laser. It is filed as cell-based, mouse. The following applies: 1064 nm excitation. An excerpt: For full details of our non-linear imaging microscope, we refer the reader to previously published descriptions. A. C. Millard, P. J. Campagnola, W. Mohler, A. Lewis, and L. M. Loew, “Second Harmonic Imaging Microscopy,” Meth. Enzymol. 361, 47-69 (2003); Millard, A. C., L. Jin, and L. M. Loew, “Second Harmonic Generation Imaging Microscopy with a High Power Ultrafast Fiber Laser,”Commercial and Biomedical Applications of Ultrafast Lasers. 5714-5716, 92-98 (2005); A. C. Millard, L. Jin, M.-D. Wei, J. P. Wuskell, A. Lewis, and L. M. Loew, “Sensitivity of Second Harmonic Generation from Styryl Dyes to Transmembrane Potential,” Biophys. J. 86, 1169-1176 (2004). Our current microscope combines a Fluoview (Olympus) scan-head and an Axiovert (Zeiss) inverted microscope constructed for multiple imaging methodologies including wide-field, one-photon excitation fluorescence imaging, as well as SHG and 2PF imaging. Our laser sources include a Mira (Coherent) Ti:sapphire laser and a Femtopower (Fianium) fiber laser operating at 1064 nm. […] Fluorescence is imaged (for linear imaging) or collected (for non-linear imaging) back through the excitation objective, while SHG is collected in the forward, transmitted light direction by a condenser, either 0.8 NA or 0.55 NA (Zeiss). […]

Setting [3] is: compared with unfluorinated PY-1261.

Take `CCCCN(CCCC)c1ccc2cc(/C=C/c3cc[n+](CCCS(=O)(=O)[O-])cc3)ccc2c1` [di-4-ANEPPS]: the “SHG Kinetics (exponential time constant)” value in the data set with membrane potential (literature (Millard 2005)) is on record as 70.6 ms.

Take `CCN(CC)c1ccc(-c2ccc(/C=C(\F)c3cc[n+](CCC[N+](CC)(CC)CC)cc3)s2)s1` [PY-3008]: the “1PF Change (ΔF/F-100 mv)” value in data set [1] is recorded as 1.0E−001; 650/>715 ΔF/F-100 mv. Moreover, in the data set on dye-stained cells, the “half time for bleaching of dye-stained cells” value is on record as “increases the half time for bleaching”. Further, in the data set on dye-stained cells (confocal microscope), the “intensity of fluorescence of stained cells” value is reported as “increases”. In data set [2] (setting [3]), the “absorbance extinction coefficient of dye-stained lipid vesicle suspensions” value is given as “increases” and the “effect of fluorination on spectra” value is recorded as “shifts the spectra to the red”. Also, in data set [2], the “1PF Abs. Max” value worked out at 565 nm and the “1PF Em. Max” value is on record as 706 nm.

Regarding `CCN(CC)c1ccc(/C=C/C=C/C=C/c2cc[n+](CCC[N+](CC)(CC)CC)cc2)cc1.[Br-].[Br-]` [FM4-64], the “SHG sensitivity to membrane potential” value in the data set with membrane potential (literature) was < 10 % per 100 mV and 7.5-10 % per 100 mV.

On to `CCCCN(CCCC)c1ccc(/C=C/c2cc[n+](CCC[N+](CC)(CC)CC)cc2)s1` [PY-1284], for which the “2PF and SHG image signal strength” value in the data set with neuroblastoma cells is “weak”. Further, the “1PF Change (ΔF/F-100 mv)” value in data set [1] is 1.5E−002; 555/>610 ΔF/F-100 mv. Moreover, in data set [2], the “1PF Abs. Max” value stood at 536 nm and the “1PF Em. Max” value is 588 nm.
